Experimental data as given in ChEMBL document CHEMBL3991601, “The target landscape of clinical kinase drugs” (Science, 2017).
Active and inactive are the calls of the source. For most assays here, no stated cut-off is given here; in the data, actives have a measured Kd and inactives only a lower limit.

Experiments:
[1] = target: T1, Rab-like protein 3 (Homo sapiens, UniProt Q5HYI8)
T1 sequence (Q5HYI8 whole entry): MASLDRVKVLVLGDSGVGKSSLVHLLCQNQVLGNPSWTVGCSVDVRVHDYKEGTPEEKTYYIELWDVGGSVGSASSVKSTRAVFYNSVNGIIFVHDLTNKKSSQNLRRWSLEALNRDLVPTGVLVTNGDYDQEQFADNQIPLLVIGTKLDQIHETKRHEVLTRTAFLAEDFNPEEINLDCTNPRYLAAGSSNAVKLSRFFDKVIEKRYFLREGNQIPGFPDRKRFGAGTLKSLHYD

[2] = target: Myosin-14 (Homo sapiens, UniProt Q7Z406)
[3] = target: Tyrosine-protein kinase BTK (Homo sapiens, UniProt Q06187)
[4] = target: Glycogen synthase kinase-3 beta (Homo sapiens, UniProt P49841)
[5] = target: Dual specificity testis-specific protein kinase 1 (Homo sapiens, UniProt Q15569)
[6] = target: TRAF2 and NCK-interacting protein kinase (Homo sapiens, UniProt Q9UKE5)
[7] = target: Bone morphogenetic protein receptor type-1B (Homo sapiens, UniProt O00238)
[8] = target: Serine/threonine-protein kinase PAK 4 (Homo sapiens, UniProt O96013)
[9] = target: Epidermal growth factor receptor (Homo sapiens, UniProt P00533)
[10] = target: Cyclin-dependent kinase 2 (Homo sapiens, UniProt P24941)
[11] = target: T2, Beta-adrenergic receptor kinase 1 (Homo sapiens, UniProt P25098)
T2 sequence (P25098 whole entry): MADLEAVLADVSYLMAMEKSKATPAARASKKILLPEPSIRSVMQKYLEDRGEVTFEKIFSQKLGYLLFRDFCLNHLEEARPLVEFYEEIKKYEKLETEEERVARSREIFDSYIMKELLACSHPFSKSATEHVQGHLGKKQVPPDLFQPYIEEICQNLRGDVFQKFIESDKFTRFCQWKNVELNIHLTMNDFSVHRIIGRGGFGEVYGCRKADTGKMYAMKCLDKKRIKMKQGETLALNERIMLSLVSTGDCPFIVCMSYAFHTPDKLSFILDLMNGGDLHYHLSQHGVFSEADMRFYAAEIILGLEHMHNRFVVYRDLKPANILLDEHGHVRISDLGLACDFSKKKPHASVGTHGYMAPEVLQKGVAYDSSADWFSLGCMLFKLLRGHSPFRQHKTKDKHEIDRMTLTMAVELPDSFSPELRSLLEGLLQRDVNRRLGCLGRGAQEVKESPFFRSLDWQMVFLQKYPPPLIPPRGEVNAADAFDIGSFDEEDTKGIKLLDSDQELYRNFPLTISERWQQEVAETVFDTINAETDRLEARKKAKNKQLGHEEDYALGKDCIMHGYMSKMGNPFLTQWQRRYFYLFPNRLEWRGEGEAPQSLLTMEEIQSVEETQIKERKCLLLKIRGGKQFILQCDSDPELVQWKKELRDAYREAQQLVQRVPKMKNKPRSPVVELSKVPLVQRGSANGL

[12] = target: Mitogen-activated protein kinase kinase kinase kinase 5 (Homo sapiens, UniProt Q9Y4K4)
[13] = target: T3, Non-receptor tyrosine-protein kinase TNK1 (Homo sapiens, UniProt Q13470)
T3 sequence (Q13470 whole entry): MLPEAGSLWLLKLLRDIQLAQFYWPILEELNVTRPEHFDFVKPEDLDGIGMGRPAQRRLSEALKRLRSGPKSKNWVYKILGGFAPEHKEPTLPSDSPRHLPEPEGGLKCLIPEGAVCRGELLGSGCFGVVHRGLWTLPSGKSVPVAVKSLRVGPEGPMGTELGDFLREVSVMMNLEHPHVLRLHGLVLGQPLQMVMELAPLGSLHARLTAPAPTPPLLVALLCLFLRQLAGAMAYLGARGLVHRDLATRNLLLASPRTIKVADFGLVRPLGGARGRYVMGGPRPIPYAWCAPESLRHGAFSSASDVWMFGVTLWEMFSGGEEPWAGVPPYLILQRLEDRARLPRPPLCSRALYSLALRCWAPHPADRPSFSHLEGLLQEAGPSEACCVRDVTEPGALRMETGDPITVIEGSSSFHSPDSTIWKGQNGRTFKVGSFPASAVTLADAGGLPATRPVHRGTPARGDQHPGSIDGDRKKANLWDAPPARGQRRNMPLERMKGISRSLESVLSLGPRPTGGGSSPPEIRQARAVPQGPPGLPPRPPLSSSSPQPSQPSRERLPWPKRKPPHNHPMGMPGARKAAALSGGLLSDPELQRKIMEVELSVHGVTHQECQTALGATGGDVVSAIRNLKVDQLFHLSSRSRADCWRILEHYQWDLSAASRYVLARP

[14] = target: Mitogen-activated protein kinase kinase kinase kinase 1 (Homo sapiens, UniProt Q92918)
[15] = target: Mitogen-activated protein kinase 3 (Homo sapiens, UniProt P27361)
[16] = target: Casein kinase II subunit alpha' (Homo sapiens, UniProt P19784)
[17] = target: Cyclin-dependent kinase 5 (Homo sapiens, UniProt Q00535)
[18] = target: MAP kinase-activated protein kinase 2 (Homo sapiens, UniProt P49137)
[19] = target: Mitogen-activated protein kinase 9 (Homo sapiens, UniProt P45984)
Chain of Mitogen-activated protein kinase 9 (P45984 whole entry): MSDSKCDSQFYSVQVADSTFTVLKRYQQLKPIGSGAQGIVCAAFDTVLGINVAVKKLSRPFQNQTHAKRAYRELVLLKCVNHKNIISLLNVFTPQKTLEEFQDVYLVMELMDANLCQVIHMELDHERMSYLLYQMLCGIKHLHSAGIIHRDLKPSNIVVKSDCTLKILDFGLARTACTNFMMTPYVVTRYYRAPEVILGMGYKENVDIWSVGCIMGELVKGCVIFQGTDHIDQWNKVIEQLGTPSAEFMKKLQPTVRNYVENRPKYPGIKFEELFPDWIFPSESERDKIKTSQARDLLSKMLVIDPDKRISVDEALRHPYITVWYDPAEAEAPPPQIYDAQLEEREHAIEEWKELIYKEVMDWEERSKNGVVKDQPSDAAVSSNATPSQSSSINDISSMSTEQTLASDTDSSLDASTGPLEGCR

Chain of Serine/threonine-protein kinase PAK 4 (O96013 whole entry): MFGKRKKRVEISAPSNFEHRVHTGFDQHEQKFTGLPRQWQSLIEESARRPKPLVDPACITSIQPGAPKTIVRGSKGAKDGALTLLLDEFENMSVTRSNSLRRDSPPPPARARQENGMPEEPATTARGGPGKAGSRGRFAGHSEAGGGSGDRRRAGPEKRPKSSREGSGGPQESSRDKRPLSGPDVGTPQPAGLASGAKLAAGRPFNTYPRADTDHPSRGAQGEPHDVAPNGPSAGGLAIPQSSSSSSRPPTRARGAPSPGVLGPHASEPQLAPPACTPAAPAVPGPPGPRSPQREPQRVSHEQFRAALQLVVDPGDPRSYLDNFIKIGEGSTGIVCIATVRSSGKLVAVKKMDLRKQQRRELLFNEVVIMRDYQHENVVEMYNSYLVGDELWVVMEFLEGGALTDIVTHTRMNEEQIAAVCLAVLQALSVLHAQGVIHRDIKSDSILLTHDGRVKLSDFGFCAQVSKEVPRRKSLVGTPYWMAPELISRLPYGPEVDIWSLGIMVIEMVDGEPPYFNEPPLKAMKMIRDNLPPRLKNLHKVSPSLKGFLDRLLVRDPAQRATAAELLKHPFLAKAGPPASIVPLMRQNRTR
Chain of Tyrosine-protein kinase BTK (Q06187 whole entry): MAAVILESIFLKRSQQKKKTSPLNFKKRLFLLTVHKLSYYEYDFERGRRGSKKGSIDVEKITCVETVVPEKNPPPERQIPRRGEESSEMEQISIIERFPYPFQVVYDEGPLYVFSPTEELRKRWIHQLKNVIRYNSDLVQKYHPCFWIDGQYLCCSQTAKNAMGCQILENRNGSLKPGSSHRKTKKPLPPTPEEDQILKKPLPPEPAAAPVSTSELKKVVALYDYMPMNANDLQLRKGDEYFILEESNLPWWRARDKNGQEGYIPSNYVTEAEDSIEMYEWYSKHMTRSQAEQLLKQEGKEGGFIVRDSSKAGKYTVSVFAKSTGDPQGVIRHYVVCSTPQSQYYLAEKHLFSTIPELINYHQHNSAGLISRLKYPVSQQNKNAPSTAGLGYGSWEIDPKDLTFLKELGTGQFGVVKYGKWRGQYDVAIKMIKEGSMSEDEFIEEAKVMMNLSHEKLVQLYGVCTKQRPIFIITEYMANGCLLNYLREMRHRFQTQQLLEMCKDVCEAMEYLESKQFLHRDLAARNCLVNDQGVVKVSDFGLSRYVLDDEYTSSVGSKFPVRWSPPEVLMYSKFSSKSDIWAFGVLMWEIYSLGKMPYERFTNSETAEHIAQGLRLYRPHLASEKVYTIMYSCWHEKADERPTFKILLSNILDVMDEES
Chain of Mitogen-activated protein kinase 3 (P27361 whole entry): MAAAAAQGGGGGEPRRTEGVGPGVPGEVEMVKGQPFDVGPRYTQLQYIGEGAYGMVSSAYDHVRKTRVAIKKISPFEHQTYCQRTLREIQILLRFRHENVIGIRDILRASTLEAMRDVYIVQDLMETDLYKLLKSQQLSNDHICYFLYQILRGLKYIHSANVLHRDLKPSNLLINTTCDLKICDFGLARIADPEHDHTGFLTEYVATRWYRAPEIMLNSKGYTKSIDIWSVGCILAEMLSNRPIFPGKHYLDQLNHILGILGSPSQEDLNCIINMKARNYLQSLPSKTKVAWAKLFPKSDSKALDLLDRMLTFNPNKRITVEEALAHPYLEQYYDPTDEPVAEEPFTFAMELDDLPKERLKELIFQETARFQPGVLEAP
Chain of Mitogen-activated protein kinase kinase kinase kinase 5 (Q9Y4K4 whole entry): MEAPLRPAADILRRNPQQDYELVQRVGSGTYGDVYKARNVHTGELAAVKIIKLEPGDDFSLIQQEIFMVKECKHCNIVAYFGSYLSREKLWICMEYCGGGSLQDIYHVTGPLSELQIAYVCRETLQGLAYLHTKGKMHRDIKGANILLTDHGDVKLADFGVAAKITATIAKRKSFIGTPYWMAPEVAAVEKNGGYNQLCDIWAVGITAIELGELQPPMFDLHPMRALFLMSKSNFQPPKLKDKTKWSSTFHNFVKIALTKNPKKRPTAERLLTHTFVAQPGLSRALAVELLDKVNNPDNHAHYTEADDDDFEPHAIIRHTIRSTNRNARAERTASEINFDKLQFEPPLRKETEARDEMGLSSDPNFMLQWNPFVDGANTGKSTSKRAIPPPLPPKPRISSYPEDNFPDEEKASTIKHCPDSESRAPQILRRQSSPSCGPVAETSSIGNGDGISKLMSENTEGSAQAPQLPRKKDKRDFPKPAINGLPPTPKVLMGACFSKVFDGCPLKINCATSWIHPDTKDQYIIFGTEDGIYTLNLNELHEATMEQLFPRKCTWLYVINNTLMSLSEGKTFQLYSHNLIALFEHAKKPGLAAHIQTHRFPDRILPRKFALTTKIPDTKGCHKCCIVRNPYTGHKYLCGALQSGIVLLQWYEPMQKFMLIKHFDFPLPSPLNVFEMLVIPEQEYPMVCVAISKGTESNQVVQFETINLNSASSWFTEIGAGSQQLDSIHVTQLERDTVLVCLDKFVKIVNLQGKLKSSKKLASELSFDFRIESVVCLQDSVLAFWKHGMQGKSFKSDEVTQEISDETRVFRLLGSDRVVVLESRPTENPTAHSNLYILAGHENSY
Chain of Cyclin-dependent kinase 5 (Q00535 whole entry): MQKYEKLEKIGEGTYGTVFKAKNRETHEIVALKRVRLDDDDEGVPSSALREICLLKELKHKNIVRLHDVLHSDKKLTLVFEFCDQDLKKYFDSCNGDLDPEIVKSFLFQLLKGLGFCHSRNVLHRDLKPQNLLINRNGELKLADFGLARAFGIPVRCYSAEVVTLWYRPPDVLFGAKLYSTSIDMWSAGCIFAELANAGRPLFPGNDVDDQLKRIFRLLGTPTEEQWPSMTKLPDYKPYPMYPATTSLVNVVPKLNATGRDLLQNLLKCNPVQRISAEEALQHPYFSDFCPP
Chain of Dual specificity testis-specific protein kinase 1 (Q15569 whole entry): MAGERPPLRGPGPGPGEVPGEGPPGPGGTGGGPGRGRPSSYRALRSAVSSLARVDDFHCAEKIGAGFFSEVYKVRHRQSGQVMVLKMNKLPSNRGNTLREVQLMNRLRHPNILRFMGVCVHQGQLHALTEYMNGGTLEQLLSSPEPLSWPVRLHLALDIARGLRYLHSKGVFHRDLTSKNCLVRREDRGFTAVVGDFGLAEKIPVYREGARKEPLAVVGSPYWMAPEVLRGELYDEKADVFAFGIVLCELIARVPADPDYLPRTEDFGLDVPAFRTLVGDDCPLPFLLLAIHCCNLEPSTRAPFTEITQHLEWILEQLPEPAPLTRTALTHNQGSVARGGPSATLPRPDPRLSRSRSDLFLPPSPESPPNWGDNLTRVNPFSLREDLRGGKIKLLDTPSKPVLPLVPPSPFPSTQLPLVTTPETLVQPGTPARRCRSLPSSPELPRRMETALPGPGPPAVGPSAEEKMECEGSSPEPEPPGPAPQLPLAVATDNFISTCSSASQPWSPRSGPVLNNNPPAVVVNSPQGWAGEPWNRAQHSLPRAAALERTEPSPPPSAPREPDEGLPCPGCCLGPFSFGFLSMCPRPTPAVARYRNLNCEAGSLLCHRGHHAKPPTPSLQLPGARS
Chain of Epidermal growth factor receptor (P00533 whole entry): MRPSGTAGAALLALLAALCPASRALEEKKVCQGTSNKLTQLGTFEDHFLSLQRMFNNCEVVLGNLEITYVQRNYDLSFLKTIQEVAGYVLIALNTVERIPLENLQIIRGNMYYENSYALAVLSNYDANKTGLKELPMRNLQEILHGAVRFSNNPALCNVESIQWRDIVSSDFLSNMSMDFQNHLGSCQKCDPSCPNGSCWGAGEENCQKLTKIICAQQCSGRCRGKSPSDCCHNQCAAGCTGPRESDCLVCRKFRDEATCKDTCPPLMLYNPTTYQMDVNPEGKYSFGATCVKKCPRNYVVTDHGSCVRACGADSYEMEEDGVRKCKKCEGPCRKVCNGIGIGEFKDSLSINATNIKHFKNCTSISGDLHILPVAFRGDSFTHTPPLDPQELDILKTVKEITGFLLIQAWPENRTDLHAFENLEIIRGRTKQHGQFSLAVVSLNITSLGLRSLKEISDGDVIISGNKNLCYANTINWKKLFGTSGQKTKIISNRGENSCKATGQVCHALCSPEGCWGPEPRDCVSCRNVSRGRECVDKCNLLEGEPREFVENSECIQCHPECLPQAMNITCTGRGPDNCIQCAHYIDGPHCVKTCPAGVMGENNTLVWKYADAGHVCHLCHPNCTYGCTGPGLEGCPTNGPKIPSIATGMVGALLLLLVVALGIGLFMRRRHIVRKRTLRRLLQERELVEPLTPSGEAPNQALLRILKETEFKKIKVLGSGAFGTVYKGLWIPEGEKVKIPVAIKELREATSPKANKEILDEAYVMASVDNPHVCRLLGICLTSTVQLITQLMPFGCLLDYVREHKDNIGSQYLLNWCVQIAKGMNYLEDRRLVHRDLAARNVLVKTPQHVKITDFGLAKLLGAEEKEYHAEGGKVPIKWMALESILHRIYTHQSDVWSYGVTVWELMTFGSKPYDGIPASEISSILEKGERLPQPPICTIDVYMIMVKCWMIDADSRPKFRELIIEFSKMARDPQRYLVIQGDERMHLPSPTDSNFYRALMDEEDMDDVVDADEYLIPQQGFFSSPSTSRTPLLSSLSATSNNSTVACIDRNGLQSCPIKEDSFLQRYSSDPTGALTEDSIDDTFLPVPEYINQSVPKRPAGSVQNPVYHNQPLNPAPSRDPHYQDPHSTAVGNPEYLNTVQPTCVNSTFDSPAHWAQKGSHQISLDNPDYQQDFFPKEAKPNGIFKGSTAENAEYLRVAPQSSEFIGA

Kd [1]	Kd [2]	Kd [3]	Kd [4]	Kd [5]	Kd [6]	Kd [7]	Kd [8]	Kd [9]	Kd [10]	Kd [11]	Kd [12]	Kd [13]	Kd [14]	Kd [15]	Kd [16]	Kd [17]	Kd [18]	Kd [19]	SMILES
> 30 µM (inactive)	> 30 µM (inactive)	> 30 µM (inactive)	> 30 µM (inactive)	> 30 µM (inactive)	> 30 µM (inactive)	> 30 µM (inactive)	> 30 µM (inactive)	> 30 µM (inactive)	> 30 µM (inactive)	> 30 µM (inactive)	> 30 µM (inactive)	> 30 µM (inactive)	> 30 µM (inactive)	> 30 µM (inactive)	> 30 µM (inactive)	> 30 µM (inactive)	> 30 µM (inactive)	> 30 µM (inactive)	Cn1cnc2c(F)c(Nc3ccc(Br)cc3F)c(C(=O)NOCCO)cc21 [BINIMETINIB]
> 30 µM (inactive)	> 30 µM (inactive)	> 30 µM (inactive)	> 30 µM (inactive)	> 30 µM (inactive)	> 30 µM (inactive)	> 30 µM (inactive)	> 30 µM (inactive)	> 30 µM (inactive)	> 30 µM (inactive)	> 30 µM (inactive)	> 30 µM (inactive)	> 30 µM (inactive)	> 30 µM (inactive)	> 30 µM (inactive)	> 30 µM (inactive)	> 30 µM (inactive)	> 30 µM (inactive)	> 30 µM (inactive)	CCn1c(C(=O)N(C2CC2)C2CC2)cc2c3c(ncn3C)c(Nc3cc(C)n(C)n3)nc21 [BMS-911543]
> 30 µM (inactive)	> 30 µM (inactive)	> 30 µM (inactive)	> 30 µM (inactive)	> 30 µM (inactive)	> 30 µM (inactive)	> 30 µM (inactive)	> 30 µM (inactive)	> 30 µM (inactive)	> 30 µM (inactive)	> 30 µM (inactive)	> 30 µM (inactive)	> 30 µM (inactive)	> 30 µM (inactive)	> 30 µM (inactive)	> 30 µM (inactive)	> 30 µM (inactive)	> 30 µM (inactive)	> 30 µM (inactive)	COc1c(OCCCN2CCOCC2)ccc2c1N=C(NC(=O)c1cnc(N)nc1)N1CCN=C21 [COPANLISIB]
> 30 µM (inactive)	> 30 µM (inactive)	> 30 µM (inactive)	> 30 µM (inactive)	> 30 µM (inactive)	1.21 µM	> 30 µM (inactive)	> 30 µM (inactive)	> 30 µM (inactive)	> 30 µM (inactive)	> 30 µM (inactive)	> 30 µM (inactive)	> 30 µM (inactive)	> 30 µM (inactive)	> 30 µM (inactive)	> 30 µM (inactive)	> 30 µM (inactive)	> 30 µM (inactive)	> 30 µM (inactive)	Cc1cccc(-c2nn3c(c2-c2ccnc4ccc(C(N)=O)cc24)CCC3)n1 [GALUNISERTIB]
> 30 µM (inactive)	> 30 µM (inactive)	> 30 µM (inactive)	> 30 µM (inactive)	> 30 µM (inactive)	> 30 µM (inactive)	> 30 µM (inactive)	> 30 µM (inactive)	> 30 µM (inactive)	> 30 µM (inactive)	> 30 µM (inactive)	> 30 µM (inactive)	> 30 µM (inactive)	> 30 µM (inactive)	> 30 µM (inactive)	> 30 µM (inactive)	> 30 µM (inactive)	> 30 µM (inactive)	> 30 µM (inactive)	NC1(c2ccc(-c3nc4ccn5c(=O)[nH]nc5c4cc3-c3ccccc3)cc2)CCC1 [MK-2206]
> 30 µM (inactive)	> 30 µM (inactive)	> 30 µM (inactive)	> 30 µM (inactive)	> 30 µM (inactive)	> 30 µM (inactive)	> 30 µM (inactive)	> 30 µM (inactive)	> 30 µM (inactive)	> 30 µM (inactive)	> 30 µM (inactive)	> 30 µM (inactive)	> 30 µM (inactive)	> 30 µM (inactive)	> 30 µM (inactive)	> 30 µM (inactive)	> 30 µM (inactive)	> 30 µM (inactive)	1.93 µM (active)	CN(C[C@@H]1COCCO1)S(=O)(=O)Nc1ccc2ccc3ncc(-c4cnn(C)c4)cc3c(=O)c2c1 [MK-2461]
> 30 µM (inactive)	> 30 µM (inactive)	> 30 µM (inactive)	> 30 µM (inactive)	> 30 µM (inactive)	> 30 µM (inactive)	> 30 µM (inactive)	> 30 µM (inactive)	> 30 µM (inactive)	> 30 µM (inactive)	> 30 µM (inactive)	> 30 µM (inactive)	> 30 µM (inactive)	> 30 µM (inactive)	> 30 µM (inactive)	> 30 µM (inactive)	> 30 µM (inactive)	> 30 µM (inactive)	> 30 µM (inactive)	Cn1cc(-c2cnc3ccc4ccc(CS(=O)(=O)NCc5ccccn5)cc4c(=O)c3c2)cn1 [MK-8033]

SMILES	Kd [1]	Kd [2]	Kd [3]	Kd [4]	Kd [5]	Kd [6]	Kd [7]	Kd [8]	Kd [9]	Kd [10]	Kd [11]	Kd [12]	Kd [13]	Kd [14]	Kd [15]	Kd [16]	Kd [17]	Kd [18]	Kd [19]
COc1cc([C@@H]2c3cc4c(cc3[C@H](O)[C@H]3COC(=O)[C@@H]23)OCO4)cc(OC)c1OC [AXL-1717]	> 30 µM (inactive)	> 30 µM (inactive)	> 30 µM (inactive)	> 30 µM (inactive)	> 30 µM (inactive)	> 30 µM (inactive)	> 30 µM (inactive)	> 30 µM (inactive)	> 30 µM (inactive)	> 30 µM (inactive)	> 30 µM (inactive)	> 30 µM (inactive)	> 30 µM (inactive)	> 30 µM (inactive)	> 30 µM (inactive)	> 30 µM (inactive)	> 30 µM (inactive)	> 30 µM (inactive)	> 30 µM (inactive)
O=C(Nc1nc2cccc(-c3ccc(CN4CCS(=O)(=O)CC4)cc3)n2n1)C1CC1 [FILGOTINIB]	> 30 µM (inactive)	> 30 µM (inactive)	> 30 µM (inactive)	> 30 µM (inactive)	> 30 µM (inactive)	> 30 µM (inactive)	> 30 µM (inactive)	> 30 µM (inactive)	> 30 µM (inactive)	> 30 µM (inactive)	> 30 µM (inactive)	> 30 µM (inactive)	> 30 µM (inactive)	> 30 µM (inactive)	> 30 µM (inactive)	> 30 µM (inactive)	> 30 µM (inactive)	> 30 µM (inactive)	> 30 µM (inactive)
